“Also recorded” adds a separate entry of the source.
Legend:
PARP-1 [1] = biological target: T1, PARP-1 (Mus musculus, UniProt P11103); test: Cellular PARP-1 activity in microglia, macrophages or astrocytes; format: cell-based; parameters: host or cells: C8B4 microglia, C8-D1A astrocytes, Raw 264.7 macrophages
Experimental: 5A, a bar graph showing the time course of microglial PARP-1 activation by 15-oxysterols or 7-KC. PARP-1 activity is shown as Mean±SEM. […] (Mean±SEM) 5C, a bar graph showing activation of microglial PARP-1 by 15-HC in the presence of kinase inhibitors (Mean±SEM).
6A, a set of three bar graphs showing PARP-1 activity in microglia, macrophages or astrocytes activated with 15-HC in the presence of blocking antibodies to TLR2 or TLR4, or isotype controls (Mean±SEM).
PARP-1 activity was measured using PARP HT Universal Colorimetric Kit (Trevigen, MD, USA), following manufacturer instructions.
Cells were cultured with DMEM supplemented with 10% fetal bovine serum, 2 mM L-glutamine, 25 mM HEPES, and 1 mM sodium pyruvate. Cells in logarithmic growth were treated with 1 μg/ml of 15-HC for 1, 5, 15, and 30 minutes in serum-free medium. Blocking antibodies (Ebioscience, San Diego, Calif., USA) were added in some experiments at a final concentration of 10 ug/ml.

PARP-1 [2] = biological target: T2, PARP-1 (Homo sapiens, UniProt P09874); conditions: Diestel et al. 2003; cited from earlier work
Target sequence in this assay (P09874 whole entry, species assumed): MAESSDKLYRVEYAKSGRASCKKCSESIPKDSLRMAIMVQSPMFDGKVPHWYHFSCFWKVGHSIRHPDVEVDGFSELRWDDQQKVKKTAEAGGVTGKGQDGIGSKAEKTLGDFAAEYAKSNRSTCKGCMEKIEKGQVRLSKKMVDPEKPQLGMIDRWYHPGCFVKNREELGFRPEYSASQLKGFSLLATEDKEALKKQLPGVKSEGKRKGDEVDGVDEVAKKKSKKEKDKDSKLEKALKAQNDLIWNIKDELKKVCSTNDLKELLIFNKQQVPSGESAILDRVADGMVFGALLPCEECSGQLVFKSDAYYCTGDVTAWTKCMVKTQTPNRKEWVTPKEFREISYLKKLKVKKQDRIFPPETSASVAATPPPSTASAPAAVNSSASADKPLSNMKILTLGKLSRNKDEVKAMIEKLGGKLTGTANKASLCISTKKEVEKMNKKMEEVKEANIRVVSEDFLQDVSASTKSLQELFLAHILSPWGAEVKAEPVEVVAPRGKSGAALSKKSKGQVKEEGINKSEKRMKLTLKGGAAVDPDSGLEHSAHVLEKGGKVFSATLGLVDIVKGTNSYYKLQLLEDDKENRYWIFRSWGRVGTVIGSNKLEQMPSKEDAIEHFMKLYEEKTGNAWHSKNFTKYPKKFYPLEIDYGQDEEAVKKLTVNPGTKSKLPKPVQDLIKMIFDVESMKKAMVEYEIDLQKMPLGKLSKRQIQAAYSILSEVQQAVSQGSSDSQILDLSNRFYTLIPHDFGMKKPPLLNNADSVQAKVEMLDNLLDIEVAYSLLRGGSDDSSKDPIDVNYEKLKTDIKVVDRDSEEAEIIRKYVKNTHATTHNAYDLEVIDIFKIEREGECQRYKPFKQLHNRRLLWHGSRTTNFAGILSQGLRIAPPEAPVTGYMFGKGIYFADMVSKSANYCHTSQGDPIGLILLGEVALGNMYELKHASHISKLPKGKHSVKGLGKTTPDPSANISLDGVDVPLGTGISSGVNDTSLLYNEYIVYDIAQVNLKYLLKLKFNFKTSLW

PARP-1 [3] = biological target: T1, PARP-1
Experimental: Microglia and astrocyte activation have been linked to the progressive phase of experimental SPMS (Basso et al., J Clin Invest 118, 1532-1543 (2008)), thus the activation of PARP-1 was analyzed in the CNS of NOD mice during the progressive phase of EAE.
Spinal cord tissue samples from MOG-immunized NOD mice with or without AIQ treatment were collected at day 55, fixed in 4% paraformaldehyde, cryoprotected in 20% sucrose, and frozen in OCT. Spinal cord frozen sections were cut at 10 μm and processed for histological analysis, immunohistochemistry, or immunofluorescence. […] For image analysis, 3 or 4 lumbar spinal cord sections were selected according to regional landmarks from 4 different animals per group. Image analysis was performed using the software ImageJ (NIH). For quantification, level of labeling “threshold” was used as a cut-off to determine positive or negative staining Immunofluorescence was performed using anti-Iba-1 (Wako, VA, USA), anti-GFAP (BD Bioscience, MA, USA) and anti PAR (Trevigen, MD, USA)

[4] = system: NOD mice (experimental SPMS); test: NOD experimental model of SPMS (MOG35-55 EAE), clinical score and spinal cord histology; format: in vivo, mouse
Experimental: 2A, a line graph showing the results of AIQ treatment when experimental SPMS was induced in ten-week old NOD mice by subcutaneous immunization with […] of MOG35-55 in CFA and Pertussis toxin (150 ng per mouse) given at the time of immunization and 48 hours later. AIQ (3 mg/Kg body weight) was given daily beginning on day 0, n=10 animals per group. A control group was treated with PBS. 2B, a pair of line graphs showing the results of regression analysis of EAE progression (top panel—acute phase, bottom panel—chronic phase). 2C, four images from histopathological analysis of EAE in NOD mice.
This experimental model of SPMS was used to analyze the levels of 15-oxysterols at peak of the acute EAE attack (day 18) and during the progressive phase of EAE (day 55).
150 ng/mouse of pertussis toxin (Sigma) were administered intraperitoneally on days 0 and 2. Clinical signs of EAE were assessed according to the following score: 0, no signs of disease; 1, loss of tone in the tail; 2, hind limb paresis; 3, hind limb paralysis; 4, tetraplegia; 5, moribund.
Image analysis was performed using the software ImageJ (NIH).

splenocytes = test: Adaptive encephalitogenic recall response of splenocytes from treated mice (proliferation, cytokines); format: in vivo, mouse; conditions: AIQ vs control-treated mice
Experimental: FIG. 7 is a set of eight bar graphs showing that the adaptive encephalitogenic immune response is not affected by the inhibition of PARP-1. Splenocytes prepared from control or AIQ-treated mice were activated in vitro with MOG35-55 (right column) or antibodies to CD3 (left column) and the cytokines levels were tested on the supernatant at 48 hours. Top row, IFN-gamma Second row, IL-17. Third row, IL-10. Bottom row, TGF-beta.
Splenocytes and lymph node cells were cultured in X-VIVO medium and plated at 5×10^5 cells per well in the presence of MOG35-55 for 72 hours. During the last 16 hours, cells were pulsed with 1 μCi of [^3H]-thymidine (PerkinElmer) followed by harvesting on glass fiber filters and analysis of incorporated [^3H]-thymidine in a beta-counter (1450 Microbeta, Trilux; PerkinElmer). Supernatants were collect after 48 h of culture for cytokine measurements by ELISA.

PARP-1 [5] = biological target: T2, PARP-1; test: FACS-based detection of PARP-1 activity (PAR staining) in human monocytes / PBMCs; format: cell-based; parameters: endogenous in cells; host or cells: human PBMCs / monocytes / dendritic cells / T and B cells from healthy controls and MS patients; conditions: human monocytes activated by 15-HC
Experimental: FIGS. 11A-B are show the results of FACS-based detection of PARP-1 activity. 11A. a set of five histograms showing PAR staining (as detected by FACS) of PBMCs incubated with 15-HC alone, or in combination with AIQ, blocking antibodies to TLR2 (TLR2 BL), or IC control (TLR2 IC). 11B, a line graph showing the correlation of PAR staining as detected by FACS with PARP-1 enzymatic activity detected on PBMCs activated with different concentration of 15-HC.
14A is a set of fifteen histograms showing PAR staining of PBMCs taken from HC (left column), RRMS (center column) or SPMS (right column) patients and unstimulated (top row) or activated with 15-HC alone (second row), or in combination with AIQ (third row), blocking antibodies to TLR2 (fourth row) or IC control (bottom row). 14B is a bar graph showing the mean fluorescence intensity (MFI)±SD of 5 samples/group from the histograms in 14A.
15A is a set of 24 histograms showing PAR staining of PBMCs taken from HC (left column), RRMS (center column) or SPMS (right column) patients and unstimulated (top row) or activated with pgLPS (second row), polyIC (third row), ecLPS (fourth row), flagellin (row 5), imiquimod (row 6), ssRNA (row 7) or CpG (row 8). 15B is a bar graph showing the mean fluorescence intensity (MFI)±SD of 5 samples/group from the histograms in […].
A new FACS-based method was developed to detect PARP-1 activation based on the intracellular detection of the PARP-1 product PAR with specific antibodies. Briefly, the cells were incubated with antibodies to CD16/32 to block unspecific antibody binding, and then stained for surface markers. After washing, the cells were permeabilized with Fix/Perm (BD), and then stained with rabbit anti-PAR antibodies (or control rabbit IgG) for 30′ at 4° C., followed by anti-rabbit PE for 30′ at room temperature. The samples were then analyzed by FACS.
Target sequence in this assay (P09874 whole entry): as the sequence (P09874 whole entry, species assumed) above

[6] = system: microglia, macrophages or astrocytes; test: TNF-α, CCL-2 and NO secretion by microglia, macrophages or astrocytes; format: cell-based, mouse; conditions: co-incubation with 15-HC
Experimental: FIGS. 4A-D show the results of activation of microglia, macrophages and astrocytes by 15-HC. 4A, a bar graph showing PARP-1 activity in a cell-free system where recombinant PARP-1 was incubated with DNA which as been pretreated with 15-HC or 7-KC. Non-pretreated DNA was used as a negative control and ssb-DNA as a positive control. Data is shown as Mean±SEM. 4B, a pair of bar graphs showing PARP-1 activity measured in microglia, macrophages or astrocytes incubated with 15-HC or 7-KC. The data is shown as the fold of change between vehicle and lipid-treated cells (Mean±SEM). 4C, a pair of bar graphs showing percent inhibition of PARP-1 activity in microglia, macrophages or astrocytes activated with 15-HC or 7-KC […] in the presence of 5-AIQ. 4D, a table showing levels of TNF-α, CCL-2 and NO secretion by 15-HC or 7-KC treated microglia, macrophages or astrocytes (Mean±SEM).
The effect of 15-HC on the activity of cellular PARP-1 was then investigated. […] Thus, 15-HC activates microglia, macrophages and astrocytes through a PARP-1-dependent mechanism.

PARP-1 [7] = biological target: T2, PARP-1; test: PARP-1 enzymatic activity in human PBMCs (PARP HT Universal Colorimetric Kit); format: cell-based; parameters: endogenous in cells; host or cells: human PBMCs / monocytes / dendritic cells / T and B cells from healthy controls and MS patients; conditions: healthy controls, 1 ug/ml 15-HC
Experimental: PARP-1 enzymatic activity (10A) and TNFalpha and CCL2 (10B) of PBMCs incubated with 15-HC alone, or in combination with AIQ, blocking antibodies to TLR2 or IC control.
To investigate whether the TLR2/PARP-1 axis is functional in human we activated PBMCs from healthy controls with 15-HC, in the presence or not of PARP-1 or TLR2 inhibitors.
Target sequence in this assay (P09874 whole entry): as the sequence (P09874 whole entry, species assumed) above

[8] = NOD mice, AIQ 3 mg/Kg body weight daily from day 0, vs PBS
[9] = spinal cord sections, day 55, progressive phase of NOD EAE

T1 sequence (P11103 whole entry): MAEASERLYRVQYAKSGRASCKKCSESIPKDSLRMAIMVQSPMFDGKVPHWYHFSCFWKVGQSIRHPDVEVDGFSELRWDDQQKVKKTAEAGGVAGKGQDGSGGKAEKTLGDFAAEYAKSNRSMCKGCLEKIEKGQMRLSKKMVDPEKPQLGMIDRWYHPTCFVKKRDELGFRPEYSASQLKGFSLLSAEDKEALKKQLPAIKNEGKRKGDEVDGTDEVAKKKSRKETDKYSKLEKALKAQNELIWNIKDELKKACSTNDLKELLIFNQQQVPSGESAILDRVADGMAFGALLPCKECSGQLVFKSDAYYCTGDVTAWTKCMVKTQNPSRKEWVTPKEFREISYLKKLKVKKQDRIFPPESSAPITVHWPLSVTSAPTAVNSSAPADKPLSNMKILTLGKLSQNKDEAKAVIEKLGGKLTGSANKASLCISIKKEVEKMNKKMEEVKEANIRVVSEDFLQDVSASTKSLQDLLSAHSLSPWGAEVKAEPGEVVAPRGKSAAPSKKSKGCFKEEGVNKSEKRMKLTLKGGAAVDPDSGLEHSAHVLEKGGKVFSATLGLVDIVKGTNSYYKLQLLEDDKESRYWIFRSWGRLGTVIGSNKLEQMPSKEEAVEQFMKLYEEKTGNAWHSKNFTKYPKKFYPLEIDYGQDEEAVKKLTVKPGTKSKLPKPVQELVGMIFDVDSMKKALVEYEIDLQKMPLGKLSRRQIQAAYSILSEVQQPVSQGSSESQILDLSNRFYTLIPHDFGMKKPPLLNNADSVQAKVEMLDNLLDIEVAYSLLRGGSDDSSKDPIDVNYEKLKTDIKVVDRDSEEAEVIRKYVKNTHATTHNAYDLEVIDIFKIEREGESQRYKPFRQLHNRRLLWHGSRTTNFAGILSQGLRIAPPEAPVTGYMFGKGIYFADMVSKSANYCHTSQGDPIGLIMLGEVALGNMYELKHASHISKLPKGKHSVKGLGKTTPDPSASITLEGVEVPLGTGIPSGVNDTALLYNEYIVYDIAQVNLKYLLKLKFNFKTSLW

SMILES	incubation time resulting in activation of PARP-1 (PARP-1 [1]; macrophages or microglia)	activation of the nuclear enzyme PARP-1 (PARP-1 [2])	PARP-1 activity in CNS CD11b+ cells (PARP-1 [3]; cells isolated at day 55 from AIQ or control-treated mice)	PARP-1 activation in CNS (PAR staining) (PARP-1 [3]; progressive phase of NOD EAE, data not shown)	inhibition of PARP-1 activation by 15-HC (PARP-1 [1]; microglia, macrophages or astrocytes activated with 15-HC)	clinical signs of progressive EAE [4, 8]	effect on the acute phase of EAE [4, 8]	axonal loss (Bielschowsky's silver staining) [4, 9]	demyelination (luxol fast blue) [4, 9]	proliferative recall response of splenocytes (splenocytes; activation with MOG35-55 or antibodies to CD3)	profile of cytokine secretion of splenocytes (splenocytes; supernatants at 48 h, IFN-gamma, IL-17, IL-10, TGF-beta)	blockade of 15-HC-induced PAR staining (FACS) (PARP-1 [5])	inhibition of 15-HC-induced secretion of NO, CCL-2 and TNF-α [6]	inhibition of 15-HC-induced PARP-1 enzymatic activity in human PBMCs (PARP-1 [7])
CC(C)CCC[C@@H](C)[C@H]1CC[C@H]2[C@@H]3C(=O)C=C4C[C@@H](O)CC[C@]4(C)[C@H]3CC[C@]12C [7-KC, 7-ketocholesterol, reference compound]	longer incubation times were required	activate	–	–	–	–	–	–	–	–	–	–	–	–
Nc1cccc2c(=O)[nH]ccc12 [AIQ, 5-aminoisoquinolinone]	–	–	inhibition	decreased	could be inhibited	significant inhibition	little or no effect	significant decrease; also recorded: significantly reduced	significant decrease; also recorded: significantly reduced	No statistical differences	no differences	could be blocked	could be inhibited	can be inhibited
